According to PMC9503112, “Synthesis, Molecular Docking, In Vitro and In Vivo Studies of Novel Dimorpholinoquinazoline-Based Potential Inhibitors of PI3K/Akt/mTOR Pathway” (International Journal of Molecular Sciences, 2022):

Columns and labels:
[1] = test system: MCF7 cells; test: MCF7 proliferation with 7c in combination with metformin; type: cell-based, human; details: 7c combined with metformin; printed as up to 4 nM
Source text: Hyperglycemia is one of the most frequent side effects of pan- and isoform-selective PI3K inhibitors. Drug-induced inhibition of PI3K reduces glucose uptake that stimulates insulin secretion. Long-term therapy with PI3K inhibitors can cause insulin resistance. […] We have previously analyzed the antiproliferative potency of metformin (MF) against MCF7 breast cancer cells. Metformin induced a partial restoration of the cancer cell sensitivity to hormonal and target drugs. MF caused 50% suppression of MCF7 cell growth at a concentration of 5.8 mM [54]. Based on this fact, MF at the concentrations that had no significant antiproliferative effect was used in the combination with the lead compound. […]
Human breast cancer MCF7, MDA-MB-231, SkBr-3 (purchased from the ATCC collection), human keratinocytes HaCaT, murine fibroblasts L929 and macrophages J774 cells (Collection of Shemyakin-Ovchinnikov Institute of Bioorganic Chemistry RAS) were cultured in standard DMEM or RPMI-1640 medium (ThermoScientific, Waltham, MA, USA) supplemented with 10% fetal bovine serum (FBS, Cytiva, Marlborough, MA, USA) at 37 °C, 5 % CO2 and 80–85% humidity (NuAir CO2 incubator). The cell growth was evaluated by MTT (3-[4,5-dimethylthiazol-2-yl]-2,5-diphenyltetrazolium bromide) test. […] The absorbance of solutions was measured at 540 nm with a MultiScan reader (ThermoFisher). […]

[2] = molecular target: T1, recombinant PI3K (p110α/p85α) (Homo sapiens, UniProt P42336); test: PI3K inhibition assay (HTRF); type: biochemical; details: FRET/HTRF detection; approximate; read-out: IC50 PI3Kα
T1 construct: purchased Millipore 14-602
Experimental: The PI 3-Kinase (Class I) HTRF Assay Kit (Cat# 33-016 from Millipore) was used to determine the activity of recombinant PI3K (p110α/p85α) human (Cat# 14-602 from Millipore). The kit was supplemented with ATP (Cat# A26209 from Sigma-Aldrich, St. Louis, MI, USA), DL-dithiothreitol (Cat# S-[…]-1 from Sigma-Aldrich), and Wortmannin inhibitor (Cat# 12-338 from Millipore, Burlington, MA, USA). The latter was used at 0.1 μM concentration. For measurements, a Victor ×5 plate reader (PerkinElmer, 2030, Waltham, MA, USA) was used in TRF mode with excitation at 340 nm. Fluorescence emission was recorded at 613 and 670 nm in a 384-well plate (Cat# S-CLS3658 from Sigma-Aldrich) at a time interval of 150-350 μs. The enzymatic reaction and the determination of its products were carried out according to the recommendations of the reagent kit manufacturer (Millipore) in two wells for each sample. In calculations, readings in parallel wells were averaged. The calculations were made according to the recommendations of the equipment manufacturer.

[3] = test system: SkBr-3 cells; test: Cell cycle analysis (PI-stained DNA, flow cytometry); type: cell-based, human
Experimental: The cell cycle was analyzed using PI-stained DNA. Cells from the compounds 7 treated cultures were collected at 24, 48, and 72 h, trypsinized, washed in ice-cold PBS, fixed by the addition of 70% ethanol and left for 2 h at −20 °C. Thereafter, the cells were washed twice in PBS, stained with 50 μg/mL of propidium iodide (Sigma, Merck KGaA, Darmstadt, Germany) in PBS, treated with 10 µg/mL of RNAse and analyzed by flow cytometry using FACScan device (BD, USA). A total of 2000 events were collected. The results were analyzed using FlowJo 10 software (BD, Franklin Lakes, NJ, USA).

T1 sequence (P42336 whole entry): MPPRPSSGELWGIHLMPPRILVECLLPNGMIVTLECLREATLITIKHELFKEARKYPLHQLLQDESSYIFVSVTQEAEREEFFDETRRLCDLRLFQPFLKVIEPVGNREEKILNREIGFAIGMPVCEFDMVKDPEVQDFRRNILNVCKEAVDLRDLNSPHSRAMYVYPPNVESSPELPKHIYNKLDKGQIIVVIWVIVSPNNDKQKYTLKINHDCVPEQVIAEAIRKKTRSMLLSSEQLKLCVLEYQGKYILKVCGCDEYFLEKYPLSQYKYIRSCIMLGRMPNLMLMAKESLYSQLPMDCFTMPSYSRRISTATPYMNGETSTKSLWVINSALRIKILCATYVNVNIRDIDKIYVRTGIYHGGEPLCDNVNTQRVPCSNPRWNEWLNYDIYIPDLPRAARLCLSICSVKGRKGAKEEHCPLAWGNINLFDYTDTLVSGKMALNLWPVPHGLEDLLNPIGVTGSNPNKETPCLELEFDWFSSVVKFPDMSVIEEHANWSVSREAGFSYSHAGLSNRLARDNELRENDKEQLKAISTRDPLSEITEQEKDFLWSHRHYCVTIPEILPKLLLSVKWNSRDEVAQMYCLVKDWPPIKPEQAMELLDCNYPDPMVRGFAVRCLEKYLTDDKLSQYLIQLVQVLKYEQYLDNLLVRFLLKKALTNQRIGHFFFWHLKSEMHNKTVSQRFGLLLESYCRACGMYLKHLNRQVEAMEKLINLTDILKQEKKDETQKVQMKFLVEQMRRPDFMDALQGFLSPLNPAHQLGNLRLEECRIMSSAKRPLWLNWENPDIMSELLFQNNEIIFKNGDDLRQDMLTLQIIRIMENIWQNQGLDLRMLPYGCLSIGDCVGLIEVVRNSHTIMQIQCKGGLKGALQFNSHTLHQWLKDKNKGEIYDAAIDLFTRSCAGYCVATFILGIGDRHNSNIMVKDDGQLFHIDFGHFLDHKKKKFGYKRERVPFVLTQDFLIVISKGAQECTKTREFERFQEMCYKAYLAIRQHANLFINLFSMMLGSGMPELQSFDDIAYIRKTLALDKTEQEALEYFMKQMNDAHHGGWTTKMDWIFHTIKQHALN
T1 sequence (P27986 whole entry partner): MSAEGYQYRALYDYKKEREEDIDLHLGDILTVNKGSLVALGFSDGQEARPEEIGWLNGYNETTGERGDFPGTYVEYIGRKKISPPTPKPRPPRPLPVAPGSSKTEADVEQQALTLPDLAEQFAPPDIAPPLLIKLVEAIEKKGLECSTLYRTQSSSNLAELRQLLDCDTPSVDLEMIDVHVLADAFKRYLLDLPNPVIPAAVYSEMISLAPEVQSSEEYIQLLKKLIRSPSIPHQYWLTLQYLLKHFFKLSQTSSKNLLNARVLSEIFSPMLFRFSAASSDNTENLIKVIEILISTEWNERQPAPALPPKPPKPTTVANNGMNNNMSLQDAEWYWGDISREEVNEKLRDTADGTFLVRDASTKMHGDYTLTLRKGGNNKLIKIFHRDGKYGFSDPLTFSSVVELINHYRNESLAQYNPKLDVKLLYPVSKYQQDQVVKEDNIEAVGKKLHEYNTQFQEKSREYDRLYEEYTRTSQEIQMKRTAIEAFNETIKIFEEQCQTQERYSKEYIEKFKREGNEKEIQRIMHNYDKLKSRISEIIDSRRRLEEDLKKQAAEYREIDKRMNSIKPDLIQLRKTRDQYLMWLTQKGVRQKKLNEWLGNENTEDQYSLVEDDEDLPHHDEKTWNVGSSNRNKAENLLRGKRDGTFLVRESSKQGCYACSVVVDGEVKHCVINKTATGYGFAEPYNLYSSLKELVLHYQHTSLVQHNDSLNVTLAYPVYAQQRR

IC50 [2]: ~500 µM
SMILES: O=C(NCCc1cccnc1)Nc1ccc(-c2ccc3c(N4CCOCC4)nc(N4CCOCC4)nc3c2)cc1 [Compound 7c, 1-(4-(2,4-Dimorpholinoquinazolin-7-yl)phenyl)-3-(2-(pyridin-3-yl)ethyl)urea]
Antiproliferative activity in combination with metformin [1]: up to 4 nM | Concentration above which all cells died [3]: higher than 10 μM | Concentration below which no changes in the cell cycle were found [3]: below 1 μM
